How the values were obtained:
[1] = target: T1, serotonin 5-HT3A receptor (Homo sapiens, UniProt P46098); test: Assay for 5-HT3A receptor: two-electrode voltage clamp of 5-HT-induced inward current in Xenopus oocytes expressing 5-HT3A receptor; assay type: cell-based; settings: inhibition of inward current (I5-HT) induced by 5-HT (1 μM), Xenopus laevis oocytes, from concentration-response curves; for IC50: read-out: IC50 (50% inhibitory concentration); for inhibition: read-out: maximum inhibition value (Vmax)
T1 sequence (P46098 24-478): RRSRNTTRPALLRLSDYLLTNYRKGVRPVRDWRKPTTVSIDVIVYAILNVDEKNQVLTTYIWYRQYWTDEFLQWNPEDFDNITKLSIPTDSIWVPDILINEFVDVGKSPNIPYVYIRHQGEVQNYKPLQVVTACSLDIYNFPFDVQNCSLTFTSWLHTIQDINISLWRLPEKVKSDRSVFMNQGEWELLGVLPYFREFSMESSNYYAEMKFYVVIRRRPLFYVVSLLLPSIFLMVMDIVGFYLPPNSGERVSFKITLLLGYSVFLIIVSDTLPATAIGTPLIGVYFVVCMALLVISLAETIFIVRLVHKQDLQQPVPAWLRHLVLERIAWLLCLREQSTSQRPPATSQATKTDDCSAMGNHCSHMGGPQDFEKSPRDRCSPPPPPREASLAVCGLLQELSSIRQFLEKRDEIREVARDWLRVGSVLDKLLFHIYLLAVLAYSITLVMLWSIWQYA

| Compound | Hill coefficient (nH) [1] | IC50 [1] [µM] | inhibition [1] [%] | maximum inhibition value (Vmax) [1] | melting point [°C] |
| --- | --- | --- | --- | --- | --- |
| Clc1cccc(N2CCN(CCNCc3cc(-c4ccco4)n(-c4ccccc4)n3)CC2)c1 [Compound 1, 1-Phenyl-3-{2-[4-(3-chlorophenyl)piperazin-1-yl]ethyl}aminomethyl-5-(2-furyl)pyrazole] | 1.5 ± 0.2 | 9.4 ± 0.7 | 95.9 ± 2.8 |  |  |
| Cc1cc(CNCCN2CCN(c3cccc(Cl)c3)CC2)[nH]n1 [Compound 2, 3-{2-[4-(3-Chlorophenyl)piperazin-1-yl]ethyl}aminomethyl-5-methylpyrazole] | 1.0 ± 0.1 | 9.6 ± 1.1 | 90.6 ± 2.7 |  |  |
| Clc1ccc(N2CCN(CCNCc3cc(-c4ccco4)n(-c4ccccc4)n3)CC2)cc1 [Compound 8, 1-Phenyl-3-{2-[4-(4-chlorophenyl)piperazin-1-yl]ethyl}aminomethyl-5-(2-furyl)pyrazole] | 2.0 ± 0.2 | 4.3 ± 0.3 | 97.3 ± 2 |  |  |
| 1-Phenyl-3-{2-[4-(4-chlorophenyl)piperazin-1-yl]ethyl}aminomethyl-5-methylpyrazole [Compound 3] | 1.4 ± 0.1 | 2.5 ± 0.3 |  | 98.5 ± 1.2 |  |
| Clc1ccc(N2CCN(CCNCc3cc(-c4ccc(N5CCCCC5)cc4)n(-c4ccccc4)n3)CC2)cc1 [Compound 10, 1-Phenyl-3-{2-[4-(4-chlorophenyl)piperazin-1-yl]ethyl}aminomethyl-5-4-(N-piperidyl)phenylpyrazole] | 1.9 ± 0.1 | 6.4 ± 0.3 | 95.9 ± 1.6 |  |  |
| 1-Phenyl-3-{2-[4-(4-chlorobenzhydryl)piperazin-1-yl]ethyl}aminomethyl-5-toluylpyrazole [Compound 13] | 2.2 ± 0.4 | 8.2 ± 0.8 |  | 73.1 ± 3.1 |  |
| CN1[C@@H]2CC[C@H]1C[C@@H](OC(=O)c1cc(Cl)cc(Cl)c1)C2 [MDL72222, reference compound] | 1.25 ± 0.27 |  | 99.6 ± 7.7 |  |  |

The remaining compounds from weak to strong by IC50 [1], led by results:

| Hill coefficient (nH) [1] | IC50 [1] [µM] | inhibition [1] [%] | maximum inhibition value (Vmax) [1] | melting point [°C] | Compound |
| --- | --- | --- | --- | --- | --- |
| 1.4 ± 0.4 | 3.3 ± 0.9 | 104 ± 3.5 |  | 133 to 134 | CC(C)Cc1cc(CNCCN2CCN(c3ccc(Cl)cc3)CC2)nn1C(C)(C)C [Compound 7, 1-t-Butyl-3-{2-[4-(4-chlorophenyl)piperazin-1-yl]ethyl}aminomethyl-5-isobutylpyrazole] |
| 1.1 ± 0.1 | 3.1 ± 0.3 | 101 ± 2.6 |  |  | Clc1ccc(N2CCN(CCNCc3cc(-c4ccccc4)n(-c4ccccc4)n3)CC2)cc1 [Compound 11, 1,5-Diphenyl-3-{2-[4-(4-chlorophenyl)piperazin-1-yl]ethyl}aminomethyl-5-pyrazole] |
| 1.2 ± 0.1 | 2.8 ± 0.2 | 103 ± 2.5 |  |  | CC(C)Cc1cc(CNCCN2CCN(c3ccc(Cl)cc3)CC2)nn1-c1ccccc1 [Compound 6, 1-Phenyl-3-{2-[4-(4-chlorophenyl)piperazin-1-yl]ethyl}aminomethyl-5-isobutylpyrazole] |
|  | 2.4 ± 0.4 | 103 ± 6.5 |  |  | Cc1ccc(-c2cc(CNCCN3CCN(c4ccc(Cl)cc4)CC3)nn2C(C)(C)C)cc1 [Compound 9] |
|  | 2.2 ± 0.2 | 95.5 ± 3.5 |  |  | Cc1ccc(-c2cc(CNCCN3CCN(c4ccc(Cl)cc4)CC3)nn2-c2ccccc2)cc1 [Compound 12, 1,5-Diphenyl-3-{2-[4-(4-chlorophenyl)piperazin-1-yl]ethyl}aminomethyl-5-toluylpyrazole] |
| 1.5 ± 0.3 | 1.3 ± 0.2 | 94.8 ± 4.8 |  |  | CCCc1cc(CNCCN2CCN(c3ccc(Cl)cc3)CC2)nn1-c1ccccc1 [Compound 5, 1-Phenyl-3-{2-[4-(4-chlorophenyl)piperazin-1-yl]ethyl}aminomethyl-5-propylpyrazole] |
| 1.4 ± 0.3 | 1.3 ± 0.3 |  | 97.3 ± 5.6 |  | 1-t-Butyl-3-{2-[4-(4-chlorophenyl)piperazin-1-yl]ethyl}aminomethyl-5-propylpyrazole [Compound 4] |

From patent US20080312253A1, “Pharmaceutical compositions containing pyrazole derivatives for treating as serotonin antagonist” (KOREA INSTITUTE OF SCIENCE AND TECHNOLOGY, priority 2007, published 2008)
